{"source": "patent US12391672B2", "about": "“Solid forms comprising (S)-4-(4-(4-(((2-(2,6-dioxopiperidin-3-yl)-1-oxoisoindolin-4-yl)oxy)methyl)benzyl)piperazin-1-yl)-3-fluorobenzonitrile and salts thereof, and compositions comprising and methods of using the same” (Celgene Corporation, priority 2019, dated 2025)", "format_in_all_cases": "physicochemical", "key": {"[1]": {"assay": "Competitive slurry and slurry stability experiments", "settings": "acetone/water, water contents 5% vol. and higher, room temperature and 45° C.", "method": "Form B was obtained at room temperature while form C was obtained at 45° C. in acetone alone.\nThe HBr salt was largely insoluble in various buffers when 1 mg/mL slurries were prepared and the mother liquor concentration determined (by HPLC): <0.05 mg/mL in all buffers tested."}, "[2]": {"assay": "Mechanical stressing (grinding, compression)", "settings": "compressed under 2000 psi for 1 minute", "method": "Mechanical stressing experiment: the following table describes three experiments involving mechanical stressing of Form A and/or Form B of free base Compound 1 by grinding with a mortar and pestle.\nShear Sensitivity: Form K was compressed under 2000 psi for 1 minute and analyzed by XRPD."}, "[3]": {"assay": "Solid state stability under accelerated storage conditions", "summary_of_the_method": "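Solid forms stored at 60 °C and 60 °C/75% RH (Form A 1 week, Form B 2 weeks); Form K held 14 d at 40 °C, 40 °C/75% RH, 60 °C, 60 °C/75% RH and light, versus refrigerated/ambient. Assessed by DSC/TGA, appearance, HPLC purity, chiral HPLC (S-isomer area %) and XRPD post-DVS.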"}, "[4]": {"assay": "Solubility of polymorphic forms in physiologically relevant media and final pH", "description": "Solubility data of the several polymorphic forms of Compound 1 in physiologically relevant media and the final pH of these solutions are summarized in the following tables."}, "[5]": {"assay": "Dynamic vapor sorption / hygroscopicity", "summary_of_the_method": "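Sample equilibrated at 50% r.h. on a microbalance, then one cycle at ±5% r.h. h^−1 spanning 0–95% r.h., with 5 h holds at 0% and 95% r.h. and 2 h holds at 50% r.h., run either desorption-first or sorption-first. Hygroscopicity classed from mass gain at 85% r.h. relative to initial mass.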"}}, "note": "Entries after “also recorded” stand apart in the source; their conditions may differ.", "data": [{"smiles": "N#Cc1ccc(N2CCN(Cc3ccc(COc4cccc5c4CN([C@H]4CCC(=O)NC4=O)C5=O)cc3)CC2)c(F)c1.O", "note": "[Form K of a free base of Compound 1]", "values": [{"measurement": "competitive slurry of Form B, Form C and Form K", "setting": "[1]", "value": "most stable form"}, {"measurement": "Shear Sensitivity (XRPD)", "setting": "[2]", "value": "remained as Form K"}, {"measurement": "Physical stability (DSC, PXRD, TGA)", "setting": "[3]; 14 d at 40° C., 40° C./75% RH, 60° C., 60° C./75% RH, light chamber", "value": "there does not appear to be any major change in the crystal form and water content"}, {"measurement": "physical and chemical stability", "setting": "[3]; accelerated stability conditions", "value": "chemically and physically stable; also recorded: physically and chemically stable"}, {"measurement": "Solid state chiral stability", "setting": "[3]; accelerated stability conditions, initial 97.1 area % S-isomer", "value": "no change in the chiral stability"}, {"measurement": "Solid state chemical stability (HPLC)", "setting": "[3]; accelerated storage conditions, 14 d", "value": "no significant degradation was observed"}, {"measurement": "Solid state chemical stability (HPLC), light", "setting": "[3]; exposed to light (1.2 million lux)", "value": "Minor degradation"}, {"measurement": "Solubility", "setting": "[4]; FaSSIF", "value": 1, "unit": "µg/mL"}, {"measurement": "Solubility", "setting": "[4]; FeSSiF", "value": 5, "unit": "µg/mL"}, {"measurement": "Solubility", "setting": "[4]; SGF with pepsin", "value": 420, "unit": "µg/mL"}, {"measurement": "Solubility", "setting": "[4]; Water", "value": "<LOQ"}, {"measurement": "Solubility", "setting": "[4]; pH 1 buffer HC1/NaC1", "value": 133, "unit": "µg/mL"}, {"measurement": "Solubility", "setting": "[4]; pH 3 buffer (phosphate)", "value": 90, "unit": "µg/mL"}, {"measurement": "Solubility", "setting": "[4]; pH 4 buffer (acetate)", "value": 11, "unit": "µg/mL"}, {"measurement": "Solubility", "setting": "[4]; pH 5 buffer (acetate)", "value": 1, "unit": "µg/mL"}, {"measurement": "Final pH", "setting": "[4]; solubility sample in FaSSIF", "value": 6.33}, {"measurement": "Final pH", "setting": "[4]; solubility sample in FeSSiF", "value": 5.02}, {"measurement": "Final pH", "setting": "[4]; solubility sample in SGF with pepsin", "value": 1.47}, {"measurement": "Final pH", "setting": "[4]; solubility sample in Water", "value": 6.71}, {"measurement": "Final pH", "setting": "[4]; solubility sample in pH 1 buffer HC1/NaC1", "value": 1.20}, {"measurement": "Final pH", "setting": "[4]; solubility sample in pH 3 buffer (phosphate)", "value": 3.09}, {"measurement": "Final pH", "setting": "[4]; solubility sample in pH 4 buffer (acetate)", "value": 3.98}, {"measurement": "Final pH", "setting": "[4]; solubility sample in pH 5 buffer (acetate)", "value": 5.01}, {"measurement": "plateau in water uptake", "setting": "[5]; DVS sorption, corresponding to ~1 mole of water", "value": "~3.2", "unit": "% w/w"}, {"measurement": "hygroscopicity", "setting": "[5]; DVS, class by mass gain at 85% r.h.", "value": "slightly hygroscopic (slightly hygroscopic (mass increase of <2% but ≥0.2%))"}, {"measurement": "solid form after DVS cycle", "setting": "[5]; after the DVS humidity cycle", "value": "stable with respect to application of a DVS cycle"}, {"measurement": "DVS mass increase", "setting": "[5]; relative humidity from about 5% to about 95%", "value": "about 3.2%"}]}]}
